Results as given in US20260335388A1, “COMBINATION THERAPIES WITH ONCOLYTIC ADENOVIRUS AND TOPOISOMERASE I INHIBITORS OR PRODRUGS THEREOF” (priority 2022, published 2026).
Where two headings read alike, the source gives them in different places.

Columns and labels:
Type in all cases: cell-based
Y79 cells [1] = assay: Viability of Y79 cells by treatment sequence
Experimental: To address the sequence of the treatments on cell viability and apoptosis markers, topotecan (2 μM) and VCN-01 at 50 MOI (concentration sufficient to achieve viral protein transduction at early time points) was incubated with the sequence “topotecan first” (three days before VCN-01) or “VCN-01 first” (three days before topotecan). The experiments were controlled by adding culture medium instead of the second treatment.

Y79 retinoblastoma cells = assay: cells
Y79 cells [2] = assay: Viral production assay; conditions: Y79 pre-infected with 500 MOI; topotecan 2 μM (FIG. 18F)
Experimental: Viral production assay. Y79 cells were infected with a concentration of 500 multiplicity of infection (MOI; i.e., transducing units of virus per cell), which was sufficient to achieve 80% to 100% infectivity. After 4 h, the cells were washed three times with PBS, fresh medium was added, and the cells were incubated with or without topotecan (2 μM). At time points 30, 48 and 72 h post-infection, the cell pellets were collected and exposed to three rounds of freeze-thaw lysis. Viral titers were determined in the pellets in triplicate, following an anti-hexon staining-based method in HEK293 cells (Cascallo et al., 2007).

In the case of `CC[C@@]1(O)C(=O)OCc2c1cc1n(c2=O)Cc2cc3c(CN(C)C)c(O)ccc3nc2-1` [Topotecan, topotecan], the “antiproliferative activity, topotecan first” value (Y79 cells [1]; cells pre-exposed to topotecan before VCN-01 infection (FIG. 13D)) is reported as “sensitive to the antiproliferative activity of the drug”, the “antiproliferative activity, VCN-01 first” value (Y79 cells [1]; previous VCN-01 infection (FIG. 13D)) is reported as “partially abolished the activity of the drug” and the IC50 (Y79 retinoblastoma cells; read-out: IC50, Topotecan single agent) is reported as 30.3 nM. The IC50 (Y79 retinoblastoma cells; read-out: IC50, Topotecan with VCN-01 (10 MOI)) was 893 nM and the viral production (Y79 cells [2]) was “did not increase viral production”.
